In US9045425B2, “Solid forms of N-[2,4-bis(1,1-dimethylethyl)-5-hydroxyphenyl]-1,4-dihydro-4-oxoquinoline-3-carboxamide” (Vertex Pharmaceuticals Incorporated, priority 2012, dated 2015):

Legend:
[1] = Polymorph screen solvent systems: solubility noted when preparing saturated solutions; type: physicochemical; details: solvent system: water
Method: A saturated solution of Compound 1, Form XX was made by preparing 1 mL slurries using acetonitrile (ACN), ACN-water (75:25), methylethyl ketone (MEK), or MEK-water (99:1, 90:10, or 80:20) in vials. After 24 hours in capped HPLC vials, the slurries were then filtered to remove residual solids. Approximately 2 additional milligrams of Compound 1 was added to each vial containing a saturated solution. Next, the vials were heated to 70° C. with stirring until all of the material was completely dissolved. Immediately after, the samples were submerged into an ice bath. The product, which precipitated as a white powder within 1 minute, was isolated by filtration and analyzed by XRPD and TGA.
A saturated solution was made by slurrying Compound 1, Form XX in 5 mL of solvent (ACN, isopropyl acetate (IPAc), or MEK) or 1 mL of solvent for the MEK/Water solvent system. After 24 hours, the residual solids were removed by filtration. The saturated solutions were then subjected to rapid solvent evaporation by blowing nitrogen (N2) gas over the samples with a Pierce Model 18780 Reacti-Vap evaporating unit for four hours. The product precipitated as a white powder and the form was analyzed by XRPD and TGA.
A saturated solution of Compound 1, Form XX was made by slurrying either in 5 mL of solvent in the ACN, IPAc, and MEK solvent systems, 2 mL total solvent for IPAc/water, or 1 mL total solvent for the MEK/water solvent systems. After 24 hours, the residual solids were removed by filtration. 20 mL of antisolvent was then quickly added to the saturated solutions to induce precipitation. Hexane was used as the antisolvent in the MEK and IPAc solvent systems, and MTBE was used as the antisolvent in the ACN solvent systems, as a consequence of the immiscibility between ACN and hexane. The product precipitated as a white powder and the form was analyzed by XRPD and TGA.

[2] = Desolvation: standing open under ambient conditions or in vacuum oven, form checked by XRPD; type: physicochemical
Method: A polymorph screen was conducted in the methylethyl ketone (MEK)/water solvent systems, as well as in the acetonitrile (ACN), ACN/water and isopropyl acetate solvent systems. Polymorph screening techniques included crash cooling, solvent evaporation, antisolvent addition, and slurry experiments. Slurry experiments were performed on an IKA RCT hot plate with magnetic stirring set to 710 rpm. The temperature was controlled with an IKA ETS-D5 thermocouple. Solvent volumes were measured and transferred with Gibson Pipetteman volumetric pipettes. New forms that were identified as solvates were subjected to desolvation under two potential conditions: (1) drying in a vacuum oven at 40° C. and (2) sitting undisturbed under ambient conditions in a fume hood. Physical characterization of all forms proceeded by X-ray powder diffraction (XRPD) and thermogravimetric analysis (TGA).
New forms of Compound 1 obtained in the polymorph screen suspected of being solvates were subjected to further form investigation through attempted desolvation. Forms D, E, F, G, H, I, J, K, L and Hydrate A were left to stand open to the atmosphere under ambient conditions and or were placed in a vacuum oven.

## CC(C)(C)c1cc(C(C)(C)C)c(NC(=O)c2c[nH]c3ccccc3c2=O)cc1O [Compound 1, Form XX, N-[2,4-bis(1,1-dimethylethyl)-5-hydroxyphenyl]-1,4-dihydro-4-oxoquinoline-3-carboxamide]
[1]
  Solubility in solvent system (antisolvent addition results): not soluble
  Solubility in solvent system (crash cooling results): not soluble
  Solubility in solvent system (solvent evaporation results): not soluble

## CC(C)(C)c1cc(C(C)(C)C)c(NC(=O)c2c[nH]c3ccccc3c2=O)cc1O [Form D, N-[2,4-bis(1,1-dimethylethyl)-5-hydroxyphenyl]-1,4-dihydro-4-oxoquinoline-3-carboxamide]
[2]; ambient conditions and vacuum oven for approximately 1 month
  Solid form after desolvation attempt: converted to a new crystalline form of Compound 1 designated Form R

## CC(C)(C)c1cc(C(C)(C)C)c(NC(=O)c2c[nH]c3ccccc3c2=O)cc1O [Form E, N-[2,4-bis(1,1-dimethylethyl)-5-hydroxyphenyl]-1,4-dihydro-4-oxoquinoline-3-carboxamide]
[2]; after standing under ambient conditions and after sitting in the vacuum oven
  XRPD pattern after desolvation attempt: same XRPD patterns

## CC(C)(C)c1cc(C(C)(C)C)c(NC(=O)c2c[nH]c3ccccc3c2=O)cc1O [Form G, N-[2,4-bis(1,1-dimethylethyl)-5-hydroxyphenyl]-1,4-dihydro-4-oxoquinoline-3-carboxamide]
[2]; vacuum oven for one month
  Solid form after desolvation attempt: became x-ray amorphous

## CC(C)(C)c1cc(C(C)(C)C)c(NC(=O)c2c[nH]c3ccccc3c2=O)cc1O [Form H, N-[2,4-bis(1,1-dimethylethyl)-5-hydroxyphenyl]-1,4-dihydro-4-oxoquinoline-3-carboxamide]
[2]; ambient conditions for one month
  Solid form after desolvation attempt: same Form H pattern
[2]; vacuum oven for one month
  Solid form after desolvation attempt: converted to a semi-crystalline form

## CC(C)(C)c1cc(C(C)(C)C)c(NC(=O)c2c[nH]c3ccccc3c2=O)cc1O [Form K, N-[2,4-bis(1,1-dimethylethyl)-5-hydroxyphenyl]-1,4-dihydro-4-oxoquinoline-3-carboxamide]
[2]; ambient conditions and vacuum oven for 2 months
  Solid form after desolvation attempt: converted to a new crystalline form of Compound 1 designated Form S

## CC(C)(C)c1cc(C(C)(C)C)c(NC(=O)c2c[nH]c3ccccc3c2=O)cc1O [Form L, N-[2,4-bis(1,1-dimethylethyl)-5-hydroxyphenyl]-1,4-dihydro-4-oxoquinoline-3-carboxamide]
[2]; ambient conditions for two weeks
  Solid form after desolvation attempt: same Form L pattern
[2]; vacuum oven for 24 hours
  Solid form after desolvation attempt: converted to x-ray amorphous
